Values quoted from earlier work as cited in patent publication US7166608B2, “N-aroyl piperazine derivatives as orexin receptor antagonists” (SmithKline Beecham p.l.c., priority 2001, dated 2007).

What was measured:
freely-feeding rats = details: central administration, 4 hour time period
rat sleep/EEG = details: central administration at the onset of the normal sleep period

**Q.** What does the source list for “orexin-A: peptide ligand (agonist) of the orexin receptors; human sequence given in the 1st table (EPLPDCCRQKTCSCRLYELLHGAGNHAAGILTLNH; Human orexin A)”?
**A.** increase in food intake over control rats receiving vehicle (freely-feeding rats): approximately four-fold; effect on arousal and sleep (rat sleep/EEG): dose-related increase in arousal
